The values that follow come from US20240408087A1, “TRPC6 INHIBITORY COMPOUNDS FOR TREATING SEPSIS” (Boehringer Ingelheim International GmbH, priority 2021, published 2024).

The subject of assay [1] is mouse CLP model. In words: Acute model of CLP: vascular hyper-permeability (Evans blue extravasation). It is filed as in vivo. The method, then: Cecal ligation puncture (CLP) is a model of polymicrobial sepsis which consists of extruding fecal content in the abdominal cavity of the animals under anesthesia.
(§1) Two models were performed: • Acute model of CLP lasting 24 h to measure vascular hyper-permeability in lung, liver, kidney and heart tissue. The vascular hyper-permeability was followed by the extravasation of Evans blue injected intravenously and diffused and accumulated into the tissue. The vascular hyper-permeability was expressed as μg of Evans blue in 100 mg of dry tissue. • Chronic model of CLP lasting 8 days. CLP is performed on day 0 and the survival rate is followed for 8 consecutive days.
(§2) Mice were anesthetized with ketamine (80 mg kg^−1, i.p.) and xylazine (10 mg kg^−1, i.p.). A 1-1.5 cm abdominal midline incision was made, and the caecum was located and tightly ligated at half the distance between distal pole and the base of the caecum with 4-0 silk suture (mild grade). The caecum was punctured through-and-through once with a 21-gauge needle after medium ligation. A small amount of stool was extruded to ensure that the wounds were patent. Then the cecum was replaced in its original position within the abdomen, which was closed with sutures in layers. For negative control animals, a sham surgery was performed: sham-operated animals underwent identical laparotomy but without cecal ligation or puncture. The animals were resuscitated immediately after surgery with 1 mL subcutaneous normal saline and returned to their cages. Experiment was terminated at 24 hrs after CLP.
10 mice were included in each group.
Evans blue dye (0.1 mL at 40 mg/kg) was injected through each tail vein 30 minutes before euthanasia at 24 hours after CLP. Lung, kidney, liver and heart tissues are collected, and Evans blue was extracted in Formamide. The concentration of the Evans blue dye was calculated from a standard curve and expressed as μg/100 mg lung dry tissue. The data were analyzed by using commercially available software (Prism, version 8.3.0; GraphPad Software Inc., San Diego, CA). Different groups were compared with the one-way variance analysis (ANOVA) followed by the Dunnett test (e.g CLP group compared to treated groups). All data were expressed as a mean±SEM. The limit of the significance was taken as p values less than 0.05 (p<0.05).

The subject of assay [2] is mouse CLP model. In words: Chronic model of CLP: survival rate. It is filed as in vivo. The protocol: as §1
as §2, with “On day 0, mice” for “Mice”, “cages.” for “cages. Experiment was terminated at 24 hrs after CLP.”
Compound 2 of WO 2019/161010 or its vehicle (0.5% natrosol 0.010% Tween 80) was given orally (5 ml/kg) at 30 mg/kg 2 h after CLP and once daily from day 1 to day 6. Adrecizumab, anti-adrenomedullin antibody, was given at 4 mg/kg i.v. only once, 1 h before CLP. 10 mice were included in each group.
In a second experiment, Compound 17 or its vehicle (0.5% natrosol 0.010% Tween 80) was given orally (5 ml/kg). Compound 17 was given at 10 mg/kg in two groups. In the first group, Compound 17 was given at 2 h after CLP and twice daily from day 1 to day 6. In the second group, Compound 17 was given at 24 h after CLP and twice daily from day 2 to day 6. 10 mice were included in each group.

In assay [3] the test system is LPS aerosol induced lung edema. Nature of the assay: LPS-induced vascular leakage in a mouse model (BALF total protein). It is filed as in vivo. The following applies: 4 h after LPS, average of two experiments. The method, then:
Mice are placed in a chamber and exposed to Lipopolysaccharide (LPS, known as endotoxin and found in outer membrane of Gram-negative bacteria such as Escherichia Coli) aerosol (0.8 mg/ml) for 30 min (or Phosphate-Buffered Saline, PBS as vehicle). The TRPC6 inhibitor compound 17 is given orally 12 h and 2 h before LPS challenge. The mice are euthanized 4 h after the end of the LPS aerosol exposure. Blood is collected for plasma exposure of the compound and the lungs are flushed with 0.8 ml PBS. The broncho-alveolar-lavage is centrifuged at 500 revolutions/min for 10 min and the supernatant is collected for the measurement of total protein according to Lowry measurement by absorbance at 660 nm. The mouse LPS experiment is repeated twice, and the data of each experiment are represented in FIG. 3.1 for the first experiment and FIG. 3.2 for the second experiment. FIG. 3.3 represents the average of the two experiments expressed in percent of the LPS group.
LPS aerosol induced lung edema is characterized by a significant accumulation of Broncho-Alveolar-Lavage protein (BALF protein). […]
FIG. 3.1 and FIG. 3.2 show the amount and FIG. 3.3 the percent of total protein in BALF (Broncho Alveolar Lavage Fluid) after LPS (LipoPolySaccharide) treatment without or after pretreatment with (+) compound 17 as evaluated along the following tabular scheme

In assay [4] the target is T1, TRPC6 (Homo sapiens, UniProt Q9Y210).
T1 sequence (Q9Y210 1-931): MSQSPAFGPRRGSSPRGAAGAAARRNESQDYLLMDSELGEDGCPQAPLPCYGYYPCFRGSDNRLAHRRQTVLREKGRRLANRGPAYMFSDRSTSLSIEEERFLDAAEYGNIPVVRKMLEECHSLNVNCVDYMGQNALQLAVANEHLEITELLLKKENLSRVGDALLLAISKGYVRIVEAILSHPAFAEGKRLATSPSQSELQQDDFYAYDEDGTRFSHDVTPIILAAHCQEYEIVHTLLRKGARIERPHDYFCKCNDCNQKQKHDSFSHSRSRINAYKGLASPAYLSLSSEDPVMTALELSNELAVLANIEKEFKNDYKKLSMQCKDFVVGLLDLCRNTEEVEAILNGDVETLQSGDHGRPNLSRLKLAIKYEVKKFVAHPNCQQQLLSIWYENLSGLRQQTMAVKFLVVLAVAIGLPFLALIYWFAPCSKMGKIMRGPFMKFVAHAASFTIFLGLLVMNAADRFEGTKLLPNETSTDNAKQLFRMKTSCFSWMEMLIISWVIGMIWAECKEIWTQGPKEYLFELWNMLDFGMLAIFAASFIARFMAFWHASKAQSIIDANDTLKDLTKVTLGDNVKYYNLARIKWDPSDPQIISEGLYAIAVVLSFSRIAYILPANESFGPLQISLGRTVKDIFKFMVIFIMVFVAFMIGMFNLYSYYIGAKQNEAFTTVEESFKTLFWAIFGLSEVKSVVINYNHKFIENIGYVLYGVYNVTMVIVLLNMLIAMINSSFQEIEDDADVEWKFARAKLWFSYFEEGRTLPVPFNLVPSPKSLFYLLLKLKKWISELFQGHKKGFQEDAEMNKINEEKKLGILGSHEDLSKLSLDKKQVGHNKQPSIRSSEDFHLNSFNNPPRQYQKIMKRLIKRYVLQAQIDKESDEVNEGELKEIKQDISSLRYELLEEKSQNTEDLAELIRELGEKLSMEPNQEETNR
Nature of the assay: in vitro Patch Clamp. It is filed as cell-based. For orientation: The patch-clamp technique gives a direct electrical read-out from membranes.

Where [5] appears, read: Example 1, prophylactic mode, 30 mg/kg orally 2 h before and 8 h after CLP.
Where [6] appears, read: Example 1, therapeutic mode, 30 mg/kg orally 2 h and 8 h after CLP.
Where [7] appears, read: Example 2, 30 mg/kg orally, therapeutic mode 2 and 8 h after CLP.
The mark [8] stands for this setting: Example 2, 10 mg/kg orally, therapeutic mode 2 and 8 h after CLP.

For `Nc1ccc(C2CCN(C(=O)c3ccc(Oc4ccc(C(F)(F)F)cc4)cc3)CC2)nn1` [Compound 2 of WO 2019/161010], in assay [1] (Example 1, heart, therapeutic mode, 30 mg/kg orally 2 h and 8 h after CLP), the “inhibition of Evans blue concentration in heart” value came out at 94%. Moreover, the “inhibition of Evans blue concentration in kidney” value in assay [1] (setting [5]) amounted to 84%; in assay [1] (setting [6]), 98%. In addition, the results for the “inhibition of Evans blue concentration in liver” value in assay [1] (setting [5]) and in assay [1] (setting [6]) were 71% and 88%, respectively. The “inhibition of Evans blue concentration in lung” value was 87% in assay [1] (Example 1, lung, prophylactic mode, 30 mg/kg orally 2 h before and 8 h after CLP, 24 h after CLP); 87% in assay [1] (Example 1, lung, therapeutic mode, 10 mg/kg orally 2 h and 8 h after CLP, 24 h after CLP); 100% in assay [1] (Example 1, lung, therapeutic mode, 30 mg/kg orally 2 h and 8 h after CLP, 24 h after CLP). In addition, the “reduction of Evans blue concentration in heart” value in assay [1] (Example 2, heart, 30 mg/kg orally, therapeutic mode 2 and 8 h after CLP) stood at 100%. In assay [1] (setting [7]), the “reduction of Evans blue concentration in kidney” value came out at 90%. In addition, the “reduction of Evans blue concentration in liver” value in assay [1] (setting [7]) amounted to 58%. The “reduction of Evans blue concentration in lung tissue” value in assay [1] (Example 2, lung, 30 mg/kg orally, therapeutic mode 2 and 8 h after CLP) stood at 94%. Moreover, the “survival rate at day 8” value in assay [2] (first experiment, 30 mg/kg orally 2 h after CLP and once daily from day 1 to day 6) was 50%. For the same compound, in assay [2] (first experiment, day 8), the “survival rate compared with adrecizumab” value was “significantly superior to adrecizumab survival rate”.
As for `COc1cc(C(=O)N2CCC(c3ccc(N)nn3)CC2)ncc1Oc1ccc(F)cc1` [Compound 17, [4-(6-Amino-pyridazin-3-yl)-piperidin-1-yl]-[5-(4-fluoro-phenoxy)-4-methoxy-pyridin-2-yl]-methanone], the “reduction of Evans blue concentration in heart” value in assay [1] (Example 2, heart, 3 mg/kg orally, therapeutic mode 2 and 8 h after CLP) is reported as 100%; in assay [1] (Example 2, heart, 10 mg/kg orally, therapeutic mode 2 and 8 h after CLP), 120%. Moreover, the “reduction of Evans blue concentration in kidney” value in assay [1] (setting [8]) is 95%. Also, the “reduction of Evans blue concentration in liver” value in assay [1] (setting [8]) is 48%. The “inhibition of Evans blue concentration in lung” value is reported as 65% in assay [1] (Example 2, lung, 1 mg/kg orally, therapeutic mode 2 and 8 h after CLP); 90% in assay [1] (Example 2, lung, 3 mg/kg orally, therapeutic mode 2 and 8 h after CLP); 100% in assay [1] (Example 2, lung, 10 mg/kg orally, therapeutic mode 2 and 8 h after CLP). Also, the vascular leakage result in assay [1] (summary of FIGS. 2.1 to 2.4 (CLP) and FIGS. 3.1 to 3.3 (LPS)) was “significantly reduces vascular leakage”. In addition, the “reduction of BALF protein concentration” value in assay [3] (3 mg/kg p.o. 12 h and 2 h before LPS aerosol) was 56%; in assay [3] (10 mg/kg p.o. 12 h and 2 h before LPS aerosol) it was 62%. In addition, it took 0.019 µM to reach half-maximal inhibition in assay [4] (IC50). For the same compound, the IC90 – broadly, the point of the concentration-response curve where the effect stands at 90% – in assay [4] came out at 0.104 µM. In addition, the “in vitro Patch Clamp IC75” value in assay [4] was found to be 0.048 µM. In addition, the “survival rate at day 8” value was determined as 60% in assay [2] (second experiment, 10 mg/kg orally at 2 h after CLP and twice daily from day 1 to day 6); 50% in assay [2] (second experiment, 10 mg/kg orally at 24 h after CLP and twice daily from day 2 to day 6).
Regarding “Adrecizumab: anti-adrenomedullin antibody”, the “survival rate at day 8” value in assay [2] (first experiment, 4 mg/kg i.v. only once, 1 h before CLP) amounted to 30%.
